Measured values reported in US8975246B2, “Bile acid or bile salt fatty acid conjugates” (Galmed Research and Development Ltd., priority 2001, dated 2015).

Columns and labels:
Assay type in all cases: in vivo
[1] = system: Inbred C57J/L male mice; assay: Serum cholesterol of mice on lithogenic diet
Protocol: Inbred C57J/L male mice (Jackson Lab., Maine, USA) 4-6 weeks old weighing 20-25 gm were used. They were given their regular diet supplemented with (% w/w) Butter fat 15, Cholesterol 1, Cholic Acid 0.5, Corn Oil 2 (modified from Khanuia et al., Proc. Natnl. Acad. Sci. USA 1995; 92:7729-33) for 4-8 weeks (Lithogenic diet #2). Half of the group were given 3β-arachidylamido-7α,12α-dihydroxy-5β-cholan-24-oic acid at a dose of 150 mg/kg/day suspended in saline by intragastric gavage. The other half were similarly given an equal volume of saline. After 4-8 weeks the animals were anesthetized, heart blood was drawn for analysis. The liver and other organs were removed. Serum cholesterol levels were determined by autoanalyzer.
Another group of C57 J/L male inbred mice (Jackson Laboratories, Maine, USA) 4-6 weeks old weighing 20-25 gm. were given a lithogenic diet (No. 2) for 8 weeks and then a regular diet for another 8 weeks. During the 8 weeks of the regular diet part of the animals were given 3β-arachidylamido-7α,12α-dihydroxy-5β-cholan-24-oic acid by intragastric gavage at a dose of 150 mg/kg/day. After a total of 16 weeks the animals were anesthetized, heart blood was drawn for analysis. Liver and other organs were removed. Serum cholesterol levels were analyzed as above. A third group of animals were given a regular diet throughout the 16 weeks and then similarly analyzed.

[2] = system: human patients; assay: Human study: change in glucose; parameters: Change from Baseline in Glucose, Mean / Change from Baseline in Glucose, Median / Change from Baseline in Glucose, Max: unit not given here
Protocol: (§1) The effects of BAFACs on disorders associated with Fatty liver, insulin resistance and altered glucose metabolism were tested on 60 human patients. Experiments were subdivided to 2 dosage regimens: Aramchol 300 mg daily (high dose) and 100 mg daily (low dose) respectively for a total period time of 3 months. The Aramchol:placebo ratio is of 2:1 for the low dose arm, and 1:1 for the high dose arms.
(§2) The study period included a 3 month treatment period with Aramchol low dose, or Aramchol high dose, or placebo, and a one month follow-up period. Aramchol was given daily orally. During the treatment period, all patients attended periodic […] (at first month) and subsequently monthly study-center visits in order to assess safety and efficacy of the treatment.
(§3) The results are shown using two known in the art principle statistical evaluation on, Intention-To-Treat (ITT) and Per Protocol (PP) populations. The ITT principle asserts that the effect of a treatment policy can be best assessed by evaluation on the basis of the intention to treat a subject (i.e. the planned treatment regimen) rather than the actual treatment given. It has the consequence that subjects allocated to a treatment group should be followed up, assessed and analyzed as members of that group irrespective of their compliance to the planned course of treatment. […] Compliance covers such considerations as exposure to treatment, availability of measurements and absence of major protocol violations.

[3] = system: human patients; assay: Human study: change in HOMA (insulin resistance); conditions: for Change in HOMA from Baseline, Max / Change in HOMA from Baseline, Mean / Change in HOMA from Baseline, Median / Change in HOMA from Baseline, Min: 3 months
Protocol: as §1, §2, §3
Homeostatic model assessment (HOMA) is a method used to quantify insulin resistance and beta-cell function. The Dunnett method is used for multiple comparisons with a control group, and adjusts the data by age, gender, diagnosis, baseline HbA1c and baseline weight.

[4] = system: human patients; assay: Human study: change in weight; parameters: Change in Weight, Mean / Change in Weight, Median / Change in Weight, Max: unit not given here; conditions: for Change in Weight, Max / Change in Weight, Mean / Change in Weight, Median / Change in Weight, Min: 3 months
Protocol: as §1, §2, §3

[5] = Aramchol 100 mg/d, Visit 3, ITT
[6] = Aramchol 100 mg/d, Visit 4, ITT
[7] = Aramchol 100 mg/d, Visit 5, ITT
[8] = Aramchol 100 mg/d, Visit 6, ITT
[9] = Aramchol 100 mg/d, Visit 7, ITT
[10] = Aramchol 300 mg/d, Visit 3, ITT
[11] = Aramchol 300 mg/d, Visit 4, ITT
[12] = Aramchol 300 mg/d, Visit 5, ITT
[13] = Aramchol 300 mg/d, Visit 6, ITT
[14] = Aramchol 300 mg/d, Visit 7, ITT

CCCCCCCCCCCCCCCCCCCC(=O)N[C@H]1CC[C@@]2(C)[C@@H](C1)C[C@@H](O)[C@@H]1[C@@H]2C[C@H](O)[C@]2(C)[C@@H]([C@H](C)CCC(=O)O)CC[C@@H]12 [Aramchol, 3β-arachidylamido-7α,12α-dihydroxy-5β-cholan-24-oic acid]
Serum Cholesterol (mean + StD) ([1]; Lithogenic diet 2 + BAFAC II 150 mg/kg/day by gavage, 4 W): 143 (19.8) mg % | Serum Cholesterol (mean + StD) ([1]; Lithogenic diet 2 + BAFAC II 150 mg/kg/day by gavage, 6 W): 125 (10.8) mg % | Serum Cholesterol (mean + StD) ([1]; Lithogenic diet 2 + BAFAC II 150 mg/kg/day by gavage, 8 W): 139 (0.7) mg % | Serum Cholesterol (mean + StD) ([1]; Lithogenic diet 2 for 8 W then regular diet 8 W with BAFAC II 150 mg/kg/day, total 16 W): 65 (6.8) mg % | Change from Baseline in Glucose, Max [2, 5]: 17.0 | Change from Baseline in Glucose, Mean [2, 5]: −2.0 | Change from Baseline in Glucose, Median [2, 5]: 0.0 | Change from Baseline in Glucose, Min [2, 5]: −38.0 | Change from Baseline in Glucose, Max [2, 6]: 16.0 | Change from Baseline in Glucose, Mean [2, 6]: −2.2 | Change from Baseline in Glucose, Median [2, 6]: 1.0 | Change from Baseline in Glucose, Min [2, 6]: −33.0 | Change from Baseline in Glucose, Max [2, 7]: 21.0 | Change from Baseline in Glucose, Mean [2, 7]: −1.0 | Change from Baseline in Glucose, Median [2, 7]: 0.5 | Change from Baseline in Glucose, Min [2, 7]: −30.0 | Change from Baseline in Glucose, Max [2, 8]: 39.0 | Change from Baseline in Glucose, Mean [2, 8]: −1.1 | Change from Baseline in Glucose, Median [2, 8]: −2.0 | Change from Baseline in Glucose, Min [2, 8]: −32.0 | Change from Baseline in Glucose, Max [2, 9]: 23.0 | Change from Baseline in Glucose, Mean [2, 9]: 0.8 | Change from Baseline in Glucose, Median [2, 9]: −1.0 | Change from Baseline in Glucose, Min [2, 9]: −41.0 | Change from Baseline in Glucose, Max [2, 10]: 19.0 | Change from Baseline in Glucose, Mean [2, 10]: −1.3 | Change from Baseline in Glucose, Median [2, 10]: 1.0 | Change from Baseline in Glucose, Min [2, 10]: −32.0 | Change from Baseline in Glucose, Max [2, 11]: 16.0 | Change from Baseline in Glucose, Mean [2, 11]: −2.4 | Change from Baseline in Glucose, Median [2, 11]: −1.5 | Change from Baseline in Glucose, Min [2, 11]: −24.0 | Change from Baseline in Glucose, Max [2, 12]: 18.0 | Change from Baseline in Glucose, Mean [2, 12]: −3.3 | Change from Baseline in Glucose, Median [2, 12]: −5.0 | Change from Baseline in Glucose, Min [2, 12]: −46.0 | Change from Baseline in Glucose, Max [2, 13]: 13.0 | Change from Baseline in Glucose, Mean [2, 13]: −2.0 | Change from Baseline in Glucose, Median [2, 13]: −2.5 | Change from Baseline in Glucose, Min [2, 13]: −22.0 | Change from Baseline in Glucose, Max [2, 14]: 82.0 | Change from Baseline in Glucose, Mean [2, 14]: 3.8 | Change from Baseline in Glucose, Median [2, 14]: 3.0 | Change from Baseline in Glucose, Min [2, 14]: −22.0 | glucose levels (in words) ([2]; Aramchol 300 mg/d, tested subjects, Table 7): remarkably reduces glucose levels | Change in HOMA from Baseline, Max ([3]; Aramchol 100 mg/d oral, ITT): 11.70 | Change in HOMA from Baseline, Mean ([3]; Aramchol 100 mg/d oral, ITT): 1.25 | Change in HOMA from Baseline, Median ([3]; Aramchol 100 mg/d oral, ITT): 0.20 | Change in HOMA from Baseline, Min ([3]; Aramchol 100 mg/d oral, ITT): −2.00 | Change in HOMA from Baseline, Max ([3]; Aramchol 100 mg/d oral, PP): 11.70 | Change in HOMA from Baseline, Mean ([3]; Aramchol 100 mg/d oral, PP): 1.13 | Change in HOMA from Baseline, Median ([3]; Aramchol 100 mg/d oral, PP): 0.20 | Change in HOMA from Baseline, Min ([3]; Aramchol 100 mg/d oral, PP): −2.00 | Change in HOMA from Baseline, Max ([3]; Aramchol 300 mg/d oral, ITT): 2.80 | Change in HOMA from Baseline, Mean ([3]; Aramchol 300 mg/d oral, ITT): −7.74 | Change in HOMA from Baseline, Median ([3]; Aramchol 300 mg/d oral, ITT): 0.20 | Change in HOMA from Baseline, Min ([3]; Aramchol 300 mg/d oral, ITT): −139.60 | Change in HOMA from Baseline, Max ([3]; Aramchol 300 mg/d oral, PP): 2.80 | Change in HOMA from Baseline, Mean ([3]; Aramchol 300 mg/d oral, PP): −7.74 | Change in HOMA from Baseline, Median ([3]; Aramchol 300 mg/d oral, PP): 0.20 | Change in HOMA from Baseline, Min ([3]; Aramchol 300 mg/d oral, PP): −139.60 | insulin resistance (in words) ([3]; Aramchol 300 mg/d, tested subjects, Tables 3 and 4): reduces insulin resistance | Change in Weight, Max ([4]; Aramchol 100 mg/d oral, ITT): 4.00 | Change in Weight, Mean ([4]; Aramchol 100 mg/d oral, ITT): 0.18 | Change in Weight, Median ([4]; Aramchol 100 mg/d oral, ITT): 0.00 | Change in Weight, Min ([4]; Aramchol 100 mg/d oral, ITT): −5.00 | Change in Weight, Max ([4]; Aramchol 100 mg/d oral, PP): 4.00 | Change in Weight, Mean ([4]; Aramchol 100 mg/d oral, PP): 0.08 | Change in Weight, Median ([4]; Aramchol 100 mg/d oral, PP): 0.00 | Change in Weight, Min ([4]; Aramchol 100 mg/d oral, PP): −5.00 | Change in Weight, Max ([4]; Aramchol 300 mg/d oral, ITT): 3.50 | Change in Weight, Mean ([4]; Aramchol 300 mg/d oral, ITT): −1.15 | Change in Weight, Median ([4]; Aramchol 300 mg/d oral, ITT): −1.25 | Change in Weight, Min ([4]; Aramchol 300 mg/d oral, ITT): −4.40 | Change in Weight, Max ([4]; Aramchol 300 mg/d oral, PP): 3.50 | Change in Weight, Mean ([4]; Aramchol 300 mg/d oral, PP): −1.15 | Change in Weight, Median ([4]; Aramchol 300 mg/d oral, PP): −1.25 | Change in Weight, Min ([4]; Aramchol 300 mg/d oral, PP): −4.40 | body weight (in words) ([4]; Aramchol 300 mg/d, tested subjects, Tables 9 and 10): reduces body weight
